# Where two headings read alike, the source gives them in different places.
# Columns and labels:
# Type in all cases: cell-based
# Candida albicans (10231) = test: Broth dilution assay, F1
# Method: (§1) Both broth dilution and agar dilution assays were used to assess the antifungal activity of the compounds of the invention. The cultures were maintained in Sabouraud dextrose broth (SDB) and diluted with […]. 2.5 l of SDB was prepared and distributed into sterile vessels as follows: 49 ml into 1 vessel, 27 ml into 3 vessels, 45 ml into 2 vessels.
# (§2) Five mg/ml concentration of each compound was prepared using DMSO as the solvent; warming and sonication were necessary to dissolve each compound completely. The compounds were then diluted in SDB according to the following protocol:
# (§3) 5. 1 ug/ml--5 ml (3)+45 ml SDB
# (§4) The compound at each concentration in SDB was then dispensed into 6 tubes each containing 4 ml […]. Controls (without any compound) were also prepared to insure that the solvent itself was not fungicidal or fungistatic.
# (§5) Cultures were grown in SDB for 24 h at 30° C. C. albicans and C. neoformans were diluted 1:10 in SDB before inoculation. Inoculation volume for yeasts was 2 drops of diluted cells per tube. The fungal cultures were homogenized before inoculation. The same volume was added, but without dilution. All tubes were incubated at room temperature on a rotating wheel. After 16 h of incubation at room temperature, the fungistatic assay was set up on agar plates. […] Yeasts were inoculated onto SDA (the corresponding agar) plates and fungi onto mycosel agar plates. These plates were then incubated at room temperature.
# [1] = test system: Epidermophyton floccosum (15693); test: Broth dilution assay, F4
# Method: as §1, §2, §3, §4, §5
# [2] = test system: Cryptococcus neoformans (13690); test: Broth dilution assay, F3
# Method: as §1, §2, §3, §4, §5
# Candida albicans (14053) = test: Broth dilution assay, F2
# Method: as §1, §2, §3, §4, §5
# [3] = test system: Trichophyton mentagrophytes (11481); test: Broth dilution assay, F6
# Method: as §1, §2, §3, §4, §5
# [4] = test system: Microsporum gypseum (14683); test: Broth dilution assay, F12; conditions: Nannizzia gypsea
# Method: as §1, §2, §3, §4, §5
# [5] = test system: Penicillium citrinum (9849); test: Broth dilution assay, F19; conditions: for MIC: Table 1, F19, Sabouraud Dextrose Broth pH 5.5, read-out: Minimum Inhibitory Concentration (S, fungistatic)
# Method: as §1, §2, §3, §4, §5
# Candida = test: Growth of Candida cultures with compound and/or SMX (FIG. 1); conditions: SMX alone (100 ug)
# [6] = Table 1, F1, Sabouraud Dextrose Broth pH 5.5, read-out: Minimum Inhibitory Concentration (S, fungistatic)
# [7] = Table 1, F1, Sabouraud Dextrose Broth pH 5.5, read-out: Minimum Lethal Concentration (C, fungicidal)
# [8] = Table 1, F4, Sabouraud Dextrose Broth pH 5.5, read-out: Minimum Inhibitory Concentration (S, fungistatic)
# [9] = Table 1, F4, Sabouraud Dextrose Broth pH 5.5, read-out: Minimum Lethal Concentration (C, fungicidal)
# [10] = Table 1, F3, Sabouraud Dextrose Broth pH 5.5, read-out: Minimum Inhibitory Concentration (S, fungistatic)
# [11] = Table 1, F3, Sabouraud Dextrose Broth pH 5.5, read-out: Minimum Lethal Concentration (C, fungicidal)
# [12] = Table 1, F2, Sabouraud Dextrose Broth pH 5.5, read-out: Minimum Inhibitory Concentration (S, fungistatic)
# [13] = Table 1, F2, Sabouraud Dextrose Broth pH 5.5, read-out: Minimum Lethal Concentration (C, fungicidal)
# [14] = Table 1, F6, Sabouraud Dextrose Broth pH 5.5, read-out: Minimum Inhibitory Concentration (S, fungistatic)
# [15] = Table 1, F6, Sabouraud Dextrose Broth pH 5.5, read-out: Minimum Lethal Concentration (C, fungicidal)
# [16] = Table 1, Sabouraud Dextrose Broth pH 5.5, read-out: Minimum Inhibitory Concentration (S, fungistatic)
# [17] = Table 1, Sabouraud Dextrose Broth pH 5.5, read-out: Minimum Lethal Concentration (C, fungicidal)
# [18] = Table 1, F19, Sabouraud Dextrose Broth pH 5.5, read-out: Minimum Lethal Concentration (C, fungicidal)
# [19] = pH 5.5, read-out: Minimum Inhibitory Concentration (S, fungistatic)
# [20] = pH 5.5, read-out: Minimum Lethal Concentration (C, fungicidal)
# [21] = pH 5.5, read-out: S Fungistatic
# [22] = Table 2, F4, Sabouraud Dextrose Broth pH 5.5, read-out: C Fungicidal
# [23] = Table 2, F4, Sabouraud Dextrose Broth pH 5.5, read-out: S Fungistatic
# [24] = Table 2, F6, Sabouraud Dextrose Broth pH 5.5, read-out: C Fungicidal
# [25] = Table 2, F6, Sabouraud Dextrose Broth pH 5.5, read-out: S Fungistatic
# [26] = Table 2, Sabouraud Dextrose Broth pH 5.5, read-out: C Fungicidal
# [27] = Table 2, Sabouraud Dextrose Broth pH 5.5, read-out: S Fungistatic
# [28] = Table 2, F1, Sabouraud Dextrose Broth pH 5.5, read-out: C Fungicidal
# [29] = Table 2, F1, Sabouraud Dextrose Broth pH 5.5, read-out: S Fungistatic
# [30] = Table 2, F3, Sabouraud Dextrose Broth pH 5.5, read-out: C Fungicidal
# [31] = Table 2, F3, Sabouraud Dextrose Broth pH 5.5, read-out: S Fungistatic
SMILES,MIC (Candida albicans (10231); [6]),MFC (Candida albicans (10231); [7]),"MIC [1, 8]","MFC [1, 9]","MIC [2, 10]","MFC [2, 11]",MIC (Candida albicans (14053); [12]),MFC (Candida albicans (14053); [13]),"MIC [3, 14]","MFC [3, 15]","MIC [4, 16]","MFC [4, 17]",MIC [5],"MFC [5, 18]","MFC [1, 22]","MIC [1, 23]","MFC [3, 24]","MIC [3, 25]","MFC [4, 26]","MIC [4, 27]",also measured
CCCCc1ccc2nc(N)nc(N)c2c1C [--CH2 (CH2)2 CH3],100 µg/mL,> 100 µg/mL,10 µg/mL,30 µg/mL,30 µg/mL,30 µg/mL,100 µg/mL,100 µg/mL,> 30 µg/mL,> 30 µg/mL,30 µg/mL,> 30 µg/mL,100 µg/mL,> 100 µg/mL,–,–,–,–,–,–,–
CCCCCc1ccc2nc(N)nc(N)c2c1C [--CH2 (CH2)3 CH 3],100 µg/mL,100 µg/mL,10 µg/mL,30 µg/mL,10 µg/mL,30 µg/mL,100 µg/mL,100 µg/mL,30 µg/mL,> 30 µg/mL,30 µg/mL,> 30 µg/mL,100 µg/mL,100 µg/mL,–,–,–,–,–,–,–
CCCc1ccc2nc(N)nc(N)c2c1C [--CH2 CH2 CH3],> 100 µg/mL,> 100 µg/mL,30 µg/mL,> 30 µg/mL,> 100 µg/mL,> 100 µg/mL,> 100 µg/mL,> 100 µg/mL,> 30 µg/mL,> 30 µg/mL,> 30 µg/mL,> 30 µg/mL,> 100 µg/mL,> 100 µg/mL,–,–,–,–,–,–,–
Cc1c(CCC(C)C)ccc2nc(N)nc(N)c12 [--CH2 CH2 CH(CH3)2],100 µg/mL,100 µg/mL,10 µg/mL,10 µg/mL,10 µg/mL,30 µg/mL,100 µg/mL,100 µg/mL,> 30 µg/mL,> 30 µg/mL,30 µg/mL,> 30 µg/mL,100 µg/mL,> 100 µg/mL,–,–,–,–,–,–,–
Cc1cccc2nc(N)nc(N)c12 [H],> 100 µg/mL,> 100 µg/mL,> 30 µg/mL,> 30 µg/mL,> 100 µg/mL,> 100 µg/mL,> 100 µg/mL,> 100 µg/mL,> 30 µg/mL,> 30 µg/mL,> 30 µg/mL,> 30 µg/mL,> 100 µg/mL,> 100 µg/mL,–,–,–,–,–,–,–
"Clc1ccc(COC(Cn2ccnc2)c2ccc(Cl)cc2Cl)c(Cl)c1 (stereo not drawn) [Miconazole, reference compound]",–,–,≤ 0.1 µg/mL,–,–,–,–,–,1 µg/mL,–,3 µg/mL,–,≤ 0.1 µg/mL,–,≤ 0.3 µg/mL,≤ 0.3 µg/mL,10 µg/mL,≤ 0.3 µg/mL,30 µg/mL,1 µg/mL,"MFC (Candida albicans (10231); pH 5.5, read-out: C Fungicidal): 100 µg/mL; MIC (Candida albicans (10231); [19]): 10 µg/mL; MFC (Candida albicans (10231); [20]): 30 µg/mL; MIC (Candida albicans (10231); [21]): 10 µg/mL; MFC [1, 20]: 1 µg/mL; MFC ([2]; pH 5.5, read-out: C Fungicidal): 10 µg/mL; MIC [2, 19]: ≤ 0.1 µg/mL; MFC [2, 20]: 10 µg/mL; MIC [2, 21]: ≤ 0.3 µg/mL; MIC (Candida albicans (14053); [19]): 30 µg/mL; MFC (Candida albicans (14053); [20]): 30 µg/mL; MFC [3, 20]: 30 µg/mL; MFC [5, 20]: 30 µg/mL"
"CCCCCCCc1ccc2nc(N)nc(N)c2c1C [R^1 = CH3 R^2 = --CH2 (CH2)5 CH3, 2,4-Diamino-5-methyl-6-n-heptylquinazoline]",–,–,–,–,–,–,–,–,–,–,–,–,–,–,30 µg/mL,10 µg/mL,30 µg/mL,30 µg/mL,100 µg/mL,30 µg/mL,"MFC (Candida albicans (10231); [28]): > 100 µg/mL; MIC (Candida albicans (10231); [29]): 30 µg/mL; MFC [2, 30]: 10 µg/mL; MIC [2, 31]: 3 µg/mL"
"CCCCCCCCCCc1ccc2nc(N)nc(N)c2c1C [R^1 = CH3 R^2 = --CH2 (CH2)8 CH3, 2,4-Diamino-5-methyl-6-n-decylquinazoline]",–,–,–,–,–,–,–,–,–,–,–,–,–,–,–,–,30 µg/mL,> 100 µg/mL,> 100 µg/mL,100 µg/mL,"MFC (Candida albicans (10231); [28]): > 100 µg/mL; MIC (Candida albicans (10231); [29]): 30 µg/mL; MFC [2, 30]: 30 µg/mL; MIC [2, 31]: 3 µg/mL"
"Cc1c(CCc2ccccc2)ccc2nc(N)nc(N)c12 [R^1 = CH3 R^2 = --CH2 (CH2)C6 H5, 2,4-Diamino-5-methyl-6-phenethylquinazline]",–,–,–,–,–,–,–,–,–,–,–,–,–,–,100 µg/mL,30 µg/mL,30 µg/mL,30 µg/mL,> 100 µg/mL,100 µg/mL,"MFC (Candida albicans (10231); [28]): > 100 µg/mL; MIC (Candida albicans (10231); [29]): 100 µg/mL; MFC [2, 30]: 30 µg/mL; MIC [2, 31]: 10 µg/mL"
CCCCCCCCCc1ccc2nc(N)nc(N)c2c1 [R^1 = H R^2 = CH2 (CH2)7 CH3],–,–,–,–,–,–,–,–,–,–,–,–,–,–,≤ 0.3 µg/mL,30 µg/mL,> 100 µg/mL,> 100 µg/mL,> 100 µg/mL,100 µg/mL,"MFC (Candida albicans (10231); [28]): > 100 µg/mL; MIC (Candida albicans (10231); [29]): 100 µg/mL; MFC [2, 30]: > 30 µg/mL; MIC [2, 31]: 3 µg/mL"
"Cc1cc(NS(=O)(=O)c2ccc(N)cc2)no1 [SMX, sulfamethoxazole, reference compound]",–,–,–,–,–,–,–,–,–,–,–,–,–,–,–,–,–,–,–,–,cfu/ml over a 36-h period (Candida): approximately 10^8 cfu/ml
"Cc1cccc(N(C)C(=S)Oc2ccc3ccccc3c2)c1 [Tolnaftate, reference compound]",> 100 µg/mL,> 100 µg/mL,≤ 0.1 µg/mL,10 µg/mL,> 100 µg/mL,> 100 µg/mL,> 100 µg/mL,> 100 µg/mL,≤ 0.1 µg/mL,3 µg/mL,≤ 0.1 µg/mL,10 µg/mL,≤ 0.3 µg/mL,30 µg/mL,≤ 0.3 µg/mL,≤ 0.3 µg/mL,> 100 µg/mL,≤ 0.3 µg/mL,30 µg/mL,≤ 0.3 µg/mL,"MFC (Candida albicans (10231); [28]): > 100 µg/mL; MIC (Candida albicans (10231); [29]): > 100 µg/mL; MFC [2, 30]: > 100 µg/mL; MIC [2, 31]: > 100 µg/mL"
